Laboratory results from patent US9517267B2, “Photodynamic diagnostic agent and photobleaching inhibitor” (SBI Pharmaceuticals Co., Ltd., priority 2012, dated 2016).
Entries after “also recorded” stand apart in the source; their conditions may differ.

Legend:
PpIX in MKN45 cells [1] = assay: Photobleaching inhibitory effect for PpIX produced from ALA in cells with other reductants (Example 2); type: cell-based; conditions: 1 mM ALA 24 h, ascorbic acid 500 μM, tocopherol 500 μM, lutein 10 μM in PBS, excitation 400 nm, fluorescence 635 nm, 0-180 s
Method: Photobleaching suppression effect for PpIX was measured for other reductants. The following were employed as the reductants. Each reductant solution was prepared by the following method and each of the prepared solutions was used as sample solvents for photobleaching measuring.
Solution supplemented with 5 μL of ascorbic acid (solvent: milli Q, concentration of supplemented solution: 100 mM) was added to 1 mL of PBS to prepare an ascorbic acid solution having a final concentration of 500 μM.
Solution supplemented with 5 μL of tocopherol (solvent: DMSO, concentration of supplemented solution: 100 mM) was added to 1 mL of PBS to prepare a tocopherol solution having a final concentration of 500 μM.
Solution supplemented with 5 μL of lutein (solvent: DMSO, concentration of supplemented solution: 2 mM) was added to 1 mL of PBS to prepare a lutein solution having a final concentration of 10 μM.
MKN45 cells were seeded in a 35 mm dish at 0.5×10^6 cells, and the culture medium on the 35 mm dish was 2 mL. Ten μL of 0.2 M ALA hydrochloride (5-aminolevulinic acid hydrochloride) solution was added to the 2 mL of culture medium in the 35 min dish to achieve the final concentration of ALA in the culture medium at 1 mM. This 35 mm dish was cultured in a 5% CO2 incubator at 37° C. for 24 hours. The cells were then washed with 1 ml of PBS, and then 1 mL of each of the reductant solutions prepared as above were added, the cells were immediately scraped off with a cell scraper, and the cells were suspended by pipetting. The fluorescence intensity at 635 nm of each of these cell suspensions under the excitation light at 400 nm was measured. The fluorescence intensity was measured from 0 seconds post irradiation of excitation light for every 10 seconds until 180 seconds post irradiation. The measurement of fluorescence intensity was performed with irradiation of the excitation light even after the 0 seconds post irradiation of excitation light.

[2] = Dissolution of alkyl gallates at 50 mM in Gly+PBS or DMSO; type: physicochemical; conditions: for solubility in Gly+PBS solution: 0.3 mmol in 6 mL (50 mM) 50% glycerol PBS
Method: (§1) (1) In order to prepare 50 mM solutions of each alkyl gallate, 0.3 mmol of each alkyl gallate was placed in a 15 mL tube, and 6 mL of 50% glycerol PBS solution (a mixture of glycerol and PBS at a proportion of 1:1, hereinafter may be notated as “Gly+PBS” or “Gly+PBS solution”) or DMSO was added and dissolved.

[3] = Absorption spectrum 350 nm-750 nm of alkyl gallate solutions; type: physicochemical; conditions: 50 mM alkyl gallate solution
Method: (2) Measurement of the absorption spectrum at 350 nm-750 nm was performed with 1000 μL of each alkyl gallate solution prepared in (1).
Since the fluorescent substance protoporphyrin IX (PpIX) has a sharp absorbance at around 400 nm, and a light at around 400 nm is employed as the excitation light, it was deemed possible that excitation of PpIX could be inhibited when employing butyl gallate.

[4] = Photobleaching inhibitory effect for porphyrins by each alkyl gallate in solution (Example 4); type: physicochemical; conditions: 50 mM alkyl gallate, 1 μM PpIX; for t/2 of PpIX fluorescence intensity: excitation 402 nm, 0.4 mA, pseudo-first-order
Method: The photobleaching inhibitory effect for porphyrins by gallic acids was measured with the following procedure. Methyl gallate (MeG, from Wako, Cat. No. 134-09812), butyl gallate (BuG, from Wako, Cat. No. 322-67472), n-propyl gallate (PrG, from Wako, Cat. No. 162-06832), and octyl gallate (OcG, from Wako, Cat. No. 322-56482) were employed as gallic acids. The gallic acids employed here are all compounds having a linear alkyl.
as §1
(3) After dispensing 990 μL of alkyl gallate into a 2 mL vial, 10 μL of 100 μM PpIX was added (final concentration of PpIX at 1 μM).
(4) Measurement of the fluorescence spectrum was performed for each alkyl gallate+PpIX solution prepared in (3) with a simplified fluorescence measurement device. LED was employed as the light source, the wavelength of the excitation light employed was 402 nm, the output current was set at 0.4 mA, and the measurement interval was every 10 seconds until 180 seconds for measurement.
For each of the plots above in FIG. 14 and FIG. 15 when a Gly+PBS solution and a DMSO solution was employed as the solvent for gallic acid, the relative fluorescence intensity was calculated by setting the fluorescence intensity immediately post irradiation (0 seconds later) as 1, and the transition of fluorescence intensity of PpIX was plotted with the calculated relative intensity as the vertical axis as shown in FIG. 16 and FIG. 17, respectively. This transition of relative fluorescence intensity was treated as a pseudo-first-order reaction to determine the half-life, and shown in Table 2 and Table 3, respectively.

PpIX in MKN45 cells [5] = assay: Photobleaching inhibitory effect for PpIX produced from ALA in cells with gallic acids or other reductants (Example 1); type: cell-based; conditions: excitation 400 nm, fluorescence 635 nm; for photobleaching inhibitory effect for PpIX: 1 mM ALA 24 h, reductant in 50% glycerol PBS (NPG 2%, PPD 0.5%, DABCO 5%, Prolong Gold as sold), 0-180 s
Method: (§2) MKN45 cells were seeded in a 35 mm dish at 0.5×10^6 cells, and the culture medium on the 35 mm dish was 2 mL. Ten μL of 0.2 M ALA hydrochloride (5-aminolevulinic acid hydrochloride) solution was added to the 2 mL of culture medium in the 35 mm dish to achieve the final concentration of ALA in the culture medium at 1 mM. This 35 mm dish was cultured in a 5% CO2 incubator at 37° C. for 24 hours. The cells were then washed with 1 ml of PBS, 1 mL of each of the following reductant solutions (dissolved in 50% glycerol PBS solution) were added on ice, the cells were immediately scraped off with a cell scraper, and the cells were suspended by pipetting. The fluorescence intensity at 635 nm of each of these cell suspensions under the excitation light at 400 nm was measured. The fluorescence intensity was measured from 0 seconds post irradiation of excitation light for every 10 seconds until 180 seconds post irradiation. Not limited to Example 1, the measurement of fluorescence intensity was performed with irradiation of the excitation light even after the 0 seconds post irradiation of excitation light.
The following were employed at the following final concentrations as each reductant:
Paraphenylenediamine (hereinafter abbreviated as “PPD”): 0.5%
n-propyl gallate (hereinafter abbreviated as “NPG”): 2%
1-4-diazabicyclo[2.2.2]-octane (hereinafter abbreviated as “DABCO”): 5%
Prolong Gold™: approximately 1% as the active ingredient sodium azide
Since Prolong Gold (an anti-fade agent from Invitrogen) was sold as a solution containing approximately 1% of sodium azide, it was added directly as the commercially available solution without employing 50% glycerol/PBS to carry out the investigation.

PpIX in MKN45 cells [6] = assay: PpIX fluorescence half-life in ALA-loaded cells with 1% NPG at varied excitation light intensity (Example 3); type: cell-based
Method: as §2
In a method similar to Example 1, 1 mL of 1% n-propyl gallic acid (NPG) solution was added, and the intensity of the excitation light was altered to 0.1 mA, 0.2 mA, 0.3 mA, and 0.4 mA to measure the fluorescence intensity.

[7] = Gly + PBS solution, fluorescence 627 nm

| Molecule | effect of inhibiting photobleaching of PpIX (PpIX in MKN45 cells [1]) | fluorescence intensity of PpIX after 30 seconds and 60 seconds relative to 0 seconds ([4]; DMSO solution) | t/2 of PpIX fluorescence intensity ([4]; DMSO, fluorescence 632 nm) | t/2 of PpIX fluorescence intensity [4, 7] | fluorescence intensity of PpIX after 30 seconds and 60 seconds relative to 0 seconds ([4]; Gly+PBS solution) | photobleaching inhibitory effect for PpIX (PpIX in MKN45 cells [5]) | other results |
| --- | --- | --- | --- | --- | --- | --- | --- |
| O=C1O[C@H]([C@@H](O)CO)C(O)=C1O [ascorbic acid] | do not have the effect of inhibiting photobleaching; also recorded: no or almost no effect |  |  |  |  |  |  |
| CCCCOC(=O)c1cc(O)c(O)c(O)c1 [BuG, butyl gallate] |  | only modestly reduced | 533.2 s | 385.1 s | only modestly reduced |  | solubility in Gly+PBS solution [2]: able to dissolve; solubility in DMSO ([2]; 0.3 mmol in 6 mL (50 mM) DMSO): able to dissolve; absorbance at around 400 nm [3]: found to have absorbance at around 400 nm |
| Nc1ccc(N)cc1 [PPD, Paraphenylenediamine] |  |  |  |  |  | a state of high fluorescence intensity as with NPG could not be maintained; also recorded: no or almost no effect | fluorescence intensity at 0 seconds post irradiation of excitation light (PpIX in MKN45 cells [5]; 1 mM ALA, PPD 0.5%): markedly reduced |
| COC(=O)c1cc(O)c(O)c(O)c1 [MeG, Methyl gallate] |  | only modestly reduced | 239.0 s | 346.6 s | only modestly reduced |  |  |
| CCCOC(=O)c1cc(O)c(O)c(O)c1 [NPG, n-propyl gallate] |  | only modestly reduced | 231.0 s | 239.0 s | only modestly reduced | superior photobleaching inhibitory effect was observed | duration of fluorescence in fluorescence microscope images (PpIX in MKN45 cells [6]; 1% NPG vs vehicle, 0, 1, 2, 3 minutes post irradiation (FIG. 4)): fluorescence was maintained for a longer duration; prolongation of half-life versus vehicle (PpIX in MKN45 cells [6]; excitation light 0.4 mA, NPG 1%): three folds; fluorescence intensity after 180 seconds post irradiation, relative to control at 0 seconds (PpIX in MKN45 cells [5]; 1 mM ALA, NPG 2%): about half |
| CC1=C[C@H](O)CC(C)(C)[C@H]1/C=C/C(C)=C/C=C/C(C)=C/C=C/C=C(C)/C=C/C=C(C)/C=C/C1=C(C)C[C@@H](O)CC1(C)C [lutein] | do not have the effect of inhibiting photobleaching |  |  |  |  |  |  |
| tocopherol | do not have the effect of inhibiting photobleaching; also recorded: no or almost no effect |  |  |  |  |  |  |
| CCCCCCCCOC(=O)c1cc(O)c(O)c(O)c1 [OcG, octyl gallate] |  | only modestly reduced | 239.0 s |  |  |  | solubility in Gly+PBS solution [2]: could not be dissolved |
| C1CN2CCN1CC2 [DABCO, 1-4-diazabicyclo[2.2.2]-octane] |  |  |  |  |  | insufficient; also recorded: no or almost no effect |  |
